Target: T1, human vasopressin V2 receptor subtype (Homo sapiens, UniProt P30518)
T1 construct: host or cells: CHO cells, pZeoSV vector
Test: Vasopressin binding in CHO cell membranes expressing human vasopressin V2 subtype receptors ([3H]arginine vasopressin radioligand binding)
Conditions: @ 100 nM
From the text: Vasopressin Binding in Chinese Hamster Ovary Cell Membranes Expressing Human Vasopressin V2 Subtype Receptors
Chinese Hamster Ovary (CHO) cells stably transfected with the human V2 subtype receptors were obtained from M. Thibonnier, Case Western Reserve University School of Medicine, Cleveland, Ohio.
A. Passaging and Amplification of Cells
CHO cells transfected with the human vasopressin V2 subtype receptors obtained from M. Thibonnier (pZeoSV vector) are allowed to grow to confluency (approx. >90%) in T-150 flasks under sterile conditions, in a cell culture medium ofF-12 Nutrient Mixture (HAM) with L-glutamine (Gibco Cat. #11765-054) containing 15 mM HEPES (Gibco Cat. #15630-080), 1% antibiotic/antimycotic (add 5 mL 100×, Gibco Cat. #15240-062 per 500 mL F-12), 250 μg/mL Zeocin (add 1.25 mL of 100 mg/mL Invitrogen R-250-01 per 500 mL F-1 2) and 10% Fetal Bovine Serum (Qualified, heat inactivated, Gibco Cat. #16140-063). The medium is removed by aspiration and the cells washed with 10 mL of Hank's Balanced Salt solution (Gibco Cat. #14175-095). The salt solution is removed by aspiration and the cells trypsinized with 5 mL of trypsin-EDTA (0.05% trypsin, 0.53 mM EDTA-4Na, Gibco Cat. #25300-070) for 1 min. The trypsin is removed by aspiration and the cells dislodged by tapping. Cell Culture medium (e.g. 30 mL for 1:30 split) is immediately added and mixed well to inactivate trypsin. 1 mL of detached cells is added to new culture flasks containing fresh Cell Culture medium (e.g. into 25 mL per T-150 flask), and mixed gently. The cells are incubated at 37° C. in 5% CO2. The medium is changed at 3 to 4 day interval (or as appropriate). The cells grow to confluency (approx. >75%-95%) within 7-8 days. All steps are done under sterile conditions.
The cells are washed twice gently with Hank's Balanced Salt solution (e.g. use 10 mL per T-150 flask). The excess solution is removed and the cells bathed for 15-30 min. in an enzyme-free Cell Dissociation Buffer (e.g. use 8 mL Hank's Based, Gibco Cat. # 13150-016 per T-150 flask) until cells are loosened. The contents are transferred to centrifuge tubes (50 mL) kept in ice bath. All subsequent steps are done at 4° C. The tubes are centrifuged at 300×g for 15 min (1380 rpm on SORVAL, Model RT6000D, using the rotor for 50 mL tubes). The supernatant is discarded and the cells suspended in homogenizing buffer (10 mM Tris-HCl containing 0.25 M sucrose and 1 mM EDTA, pH 7.4) ensuring that the volume of the buffer is about ten times the volume of the cell pellet. The cells are pooled into a centrifuge tube (50 mL) and homogenized with Polytron at setting 6 for 10 sec. The homogenate is transferred into a Potter-Elvjehm homogenizer and homogenized with 3 strokes. The homogenate is centrifuged at 1500×g for 60 min at 4° C. (3100 rpm using SORVAL, model RT6000D, using the rotor for 50 mL tubes). The pellet is discarded. The supernatant is centrifuged at 100,000×g for 60 min. at 4° C. (Beckman L8-80M ultracentrifuge; spin at 37,500 rpm with rotor type 70 Ti for 50 mL tubes; 38,000 rpm with type 80Ti for 15 mL tubes; or 35,800 rpm with rotor type 45Ti). The supernantant is discarded and the pellet suspended in 3 to 4 mL of Tris buffer (50 mM TRIS—HCl, pH 7.4). The protein content is estimated by the Bradford or Lowry method. The volume of the membrane suspension is adjusted with the membrane buffer (50 mM Tris-HCl containing 0.1% BSA and 0.1 mM PMSF) to give 3.0 mg/mL (or as appropriate) of protein. The membranes are aliquoted and stored at −70. ° C.
C. Radioligand Binding Assay
In wells of a 96-well format microtiter plate, is added 90, 110 or 130 μL (to make up a final volume of 200 μL) of assay buffer containing 50 mM of Tris-HCl (pH 7.4), […], 1 mg % aprotinin, 1 mg % leupeptin, 2 mg % 1,10-phenanthroline, 10 mg % trypsin inhibitor, and 0.1 mM PMSF. The inhibitors are added on the day of the experiment. […]

T1 sequence (P30518 whole entry): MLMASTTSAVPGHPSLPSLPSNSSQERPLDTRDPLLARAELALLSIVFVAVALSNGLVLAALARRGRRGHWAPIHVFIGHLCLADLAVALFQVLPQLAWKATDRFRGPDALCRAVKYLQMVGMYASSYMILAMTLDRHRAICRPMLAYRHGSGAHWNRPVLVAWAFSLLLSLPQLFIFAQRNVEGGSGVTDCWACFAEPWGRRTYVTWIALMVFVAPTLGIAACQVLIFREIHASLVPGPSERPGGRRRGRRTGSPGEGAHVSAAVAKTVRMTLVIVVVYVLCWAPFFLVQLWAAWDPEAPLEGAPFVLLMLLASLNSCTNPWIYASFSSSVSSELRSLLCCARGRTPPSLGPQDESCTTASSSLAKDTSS

Structure (SMILES)	inhibition at 0.1 µM [%]
COc1cc2c(cc1OC)N(C(=O)c1ccc(-c3ccccc3C(F)(F)F)c(C)c1)Cc1ccc(C(=O)N(C)CC(O)CO)n1C2 (centres unmarked) [Example 18, N-(2,3-Dihydroxypropyl)-7,8-dimethoxy-N-methyl-10-{[2-methyl-2′-trifluoromethyl-[1,1′-biphenyl]-4-yl]carbonyl}-10,11-dihydro-5H-pyrrolo[2,1-c][1,4]benzodiazepine-3-carboxamide]	-5
COc1cc2c(cc1OC)N(C(=O)c1ccc(-c3ccccc3C(F)(F)F)c(C)c1)Cc1ccc(C(=O)N(CCO)CCO)n1C2 [Example 19, N,N-Bis(2-Hydroxyethyl)-7,8-dimethoxy-10-{[2-methyl-2′-trifluoromethyl-[1,1′-biphenyl]-4-yl]carbonyl}-10,11-dihydro-5H-pyrrolo[2,1-c][1,4]benzodiazepine-3-carboxamide]	3
O=C(c1ccc2n1Cc1ccccc1N(C(=O)c1ccc(-c3cccc4ccccc34)cc1Cl)C2)N1CCN(CCO)CC1 [Example 25, 2-{4-[10-{[2-Chloro-4-(naphthalen-1-yl)phenyl]carbonyl}-(10,11-dihydro-5H-pyrrolo[2,1-c][1,4]benzodiazepin-3-yl)carbonyl]piperazine-1-yl}-1-hydroxyethane]	21

Continued, values first:

inhibition at 0.1 µM [%]	Structure (SMILES)
7	COc1cc2c(cc1OC)N(C(=O)c1ccc(-c3ccccc3OC)c(C)c1)Cc1ccc(C(=O)N(C)C[C@H](O)[C@@H](O)[C@H](O)[C@H](O)CO)n1C2 [Example 37, 7,8-Dimethoxy-10-[(2′-methoxy-2-methyl-[1,1′-biphenyl]-4-yl)carbonyl]-10,11-dihydro-5H-pyrrolo[2,1-c][1,4]benzodiazepine-3-carboxylic acid methyl-[(2S, 3R, 4R, 5R)-2,3,4,5,6-pentahydroxy-hexyl)-amide]
25	COc1ccccc1-c1ccc(C(=O)N2Cc3ccc(C(=O)N4CCN(CCO)CC4)n3Cc3ccccc32)cc1C [Example 40, [4-(2-Hydroxyethyl)-1-piperazinyl]{10-[(2′-methoxy-2-methyl[1,1′-biphenyl]-4yl)carbonyl]-10,11-dihydro-5H-pyrrolo[2,1-c][1,4]benzodiazepin-3-yl}methanone]
35	COc1cc(C(=O)N2Cc3ccc(C(=O)N4CCN(CCO)CC4)n3Cc3ccccc32)ccc1-c1cccc2ccccc12 [Example 41, [4-(2-Hydroxyethyl)-1-piperazinyl]{10-[3-methoxy-4-(1-naphthyl)benzoyl]-10,11-dihydro-5H-pyrrolo[2,1-c][1,4]benzodiazepin-3-yl}methanone]
27	COc1cc(C(=O)N2Cc3ccc(C(=O)N4CCN(CCO)CC4)n3Cc3ccccc32)ccc1-c1ccccc1C [Example 42, [4-(2-Hydroxyethyl)-1-piperazinyl]{10-[(2-methoxy-2′-methyl[1,1′-biphenyl]-4yl)carbonyl]-10,11-dihydro-5H-pyrrolo[2,1-c][1,4]benzodiazepin-3-yl}methanone]
27	COc1ccccc1-c1ccc(C(=O)N2Cc3ccc(C(=O)N4CCN(CCO)CC4)n3Cc3ccccc32)cc1OC [Example 43, {10-[(2,2′-Dimethoxy[1,1′-biphenyl]-4-yl)carbonyl]-10,11-dihydro-5H-pyrrolo[2,1-c][1,4]benzodiazepin-3-yl}[4-(2-hydroxyethyl)-1-piperazinyl]methanone]
13	COc1cccc(-c2ccc(C(=O)N3Cc4ccc(C(=O)N5CCN(CCO)CC5)n4Cc4ccccc43)cc2C)c1 [Example 44, [4-(2-Hydroxyethyl)-1-piperazinyl]{10-[(3′-methoxy-2-methyl[1,1′-biphenyl]-4yl)carbonyl]-10,11-dihydro-5H-pyrrolo[2,1-c][1,4]benzodiazepin-3-yl}methanone]
9	Cc1ccccc1-c1ccc(C(=O)N2Cc3ccc(C(=O)N4CCN(CCO)CC4)n3Cc3ccccc32)cc1 [Example 45, [4-(2-Hydroxyethyl)-1-piperazinyl]{10-[(2′-methyl[1,1′-biphenyl]-4-yl)carbonyl]-10,11-dihydro-5H-pyrrolo[2,1-c][1,4]benzodiazepin-3-yl}methanone]
14	Cc1ccccc1-c1ccc(C(=O)N2Cc3ccc(C(=O)N4CCN(CCO)CC4)n3Cc3ccccc32)cc1C [Example 46, {10-[(2,2′-Dimethyl[1,1′-biphenyl]-4-yl)carbonyl]-10,11-dihydro-5H-pyrrolo[2,1-c][1,4]benzodiazepin-3-yl}[4-(2-hydroxyethyl)-1-piperazinyl]methanone]

Same assay, conditions: value printed in parentheses

Structure (SMILES)	IC50 [µM]
COc1ccccc1-c1ccc(C(=O)N2Cc3ccc(C(=O)N(C)C[C@H](O)[C@@H](O)[C@H](O)[C@H](O)CO)n3Cc3ccccc32)cc1C [Example 17, 10-[(2′-Methoxy-2-methyl-[1,1′-biphenyl]-4-yl)carbonyl]-10,11-dihydro-5H-pyrrolo[2,1-c][1,4]benzodiazepine-3-carboxylic acid methyl-[(2S,3R,4R, 5R)-2,3,4,5,6-pentahydroxy-hexyl)-amide]	0.144
COc1cc(-c2ccccc2C(F)(F)F)c(Cl)cc1C(=O)N1Cc2ccc(C(=O)N(C)C[C@H](O)[C@@H](O)[C@H](O)[C@H](O)CO)n2Cc2ccccc21 [Example 20, 10-{[6-Chloro-3-methoxy-2′-trifluoromethyl-[1,1′-biphenyl]-4-yl]carbonyl}-N-methyl-N-[(2S,3R,4R,5R)-2,3,4,5,6-pentahydroxyhexyl]-10,11-dihydro-5H-pyrrolo[2,1-c][1,4]benzodiazepine-3-carboxamide]	0.227
COc1cc(C(=O)N2Cc3ccc(C(=O)N(C)CC(O)CO)n3Cc3ccccc32)ccc1-c1ccccc1C(F)(F)F (centres unmarked) [Example 21, N-(2,3-Dihydroxypropyl)-10-{[2-methoxy-2′-trifluoromethyl-[1,1′-biphenyl]-4-yl]carbonyl}-N-methyl-10,11-dihydro-5H-pyrrolo[2,1-c][1,4]benzodiazepine-3-carboxamide]	0.311
COc1cc(C(=O)N2Cc3ccc(C(=O)N(C)CC(O)CN(C)C)n3Cc3ccccc32)ccc1-c1ccccc1C(F)(F)F (centres unmarked) [Example 22, N-[(3-Dimethylamino)-2-hydroxy-propyl]-10-{[2-methoxy-2′-trifluoromethyl-[1,1′-biphenyl]-4-yl]carbonyl}-N-methyl-10,11-dihydro-5H-pyrrolo[2,1-c][1,4]benzodiazepine-3-carboxamide]	1.14

More lines, now with the values ahead:

IC50 [µM]	Structure (SMILES)
0.0113	Cc1ccc(-c2ccc(C(=O)N3Cc4ccc(C(=O)N(C)CC(O)CO)n4Cc4ccccc43)cc2)c2ccccc12 (centres unmarked) [Example 26, 10-{[4-(4-Methyl-naphthalen-1-yl)phenyl]carbonyl}-10,11-dihydro-5H-pyrrolo[2,1-c][1,4]benzodiazepine-3-carboxylic acid (2,3-dihydroxy-propyl)-N-methylamide]
0.383	COc1cc(-c2ccccc2C)c(Cl)cc1C(=O)N1Cc2ccc(C(=O)N3CCN(CCO)CC3)n2Cc2ccccc21 [Example 39, {10-[(6-Chloro-3-methoxy-2′-methyl[1,1′-biphenyl]-4-yl)carbonyl]-10,11-dihydro-5H-pyrrolo[2,1-c][1,4]benzodiazepin-3-yl}[4-(2-hydroxyethyl)-1-piperazinyl]methanone]

Source: US6900200B2, “Tricyclic hydroxy carboxamides and derivatives thereof tocolytic oxytocin receptor antagonists” (Wyeth, priority 2001, dated 2005)
